Source: patent US20120077837A1, “ANTI-TUMOR AGENT” (EISAI R&D MANAGEMENT CO., LTD., priority 2010, published 2012)

Tested on: human renal cell carcinoma cell line (Caki-1)
Assay: Tumor growth-inhibitory action by combined use of Compound A and everolimus in nude mice transplanted with Caki-1
Format: in vivo
Conditions: subcutaneous Caki-1 xenograft, oral once per day, Compound A 10 mg/kg, everolimus 30 mg/kg
Description: Using 5 individuals per group of nude mice (CAnN.Cg-Foxn1nu/Cr1Cr1j, female, Charles River Japan, Inc.), the antitumor effect obtained when Compound A, everolimus or the both compounds was/were administered was evaluated. Human-derived renal cell carcinoma cell line Caki-1(ATCC) was added to a medium (RPMI-1640, Wako Pure Chemical Industries, Ltd.) to a density of 2×10^8 cells/mL and suspended therein. To the resulting suspension, an equal volume of Matrigel™ matrix (Nippon Becton Dickinson Co., Ltd.) was added, and the resulting mixture was mixed sufficiently. The mixture was subcutaneously transplanted at the left flank of each mouse in an amount of 0.1 mL.
Forty eight days after the transplantation, the major axis and the minor axis were measured using an electronic digital caliper (Digimatic™ caliper, Mitutoyo Corporation). The mice were separated into groups such that the average value of the tumor volume is almost the same among the groups. The volume of the tumor was calculated according to the equation below.
Tumor volume=major axis (mm)×minor axis (mm)×minor axis (mm)/2
Compound A was dissolved in purified water to a concentration of 1 mg/mL. Further, everolimus was suspended in a mixed solution of DMSO, Tween 80 and glucose (3.5:6.5:90 (V/V/V), hereinafter referred to as solvent) to a concentration of 3 mg/mL.
To the mice of each group, the Compound A solution and the solvent, the everolimus suspension and purified water, or the Compound A solution and the everolimus suspension were orally administered in an amount of 10 mL/kg once per day for 15 days. The doses of Compound A and everolimus were 10 mg/kg and 30 mg/kg, respectively. To the control group, 10 mL/kg each of purified water and the solvent was administered.
The tumor volume of each mouse was measured on Day 4, 7, 11 and 14 after the beginning of the administration. The ratio of the tumor volume observed on each day of the measurement relative to the tumor volume observed on the day when the administration was begun was calculated as the relative tumor volume (hereinafter referred to as RTV).

[1] = Day 4 after beginning of administration
[2] = Day 7 after beginning of administration
[3] = Day 11 after beginning of administration
[4] = Day 14 after beginning of administration

Compound	relative tumor volume (RTV) [1]	relative tumor volume (RTV) [2]	relative tumor volume (RTV) [3]	relative tumor volume (RTV) [4]
COC1CC2CCC(C)C(O)(O2)C(=O)C(=O)N2CCCCC2C(=O)OC(C(C)CC2CCC(OCCO)C(OC)C2)CC(=O)C(C)/C=C(\C)C(O)C(OC)C(=O)C(C)CC(C)/C=C/C=C/C=C/1C (centres unmarked) [Everolimus, 42-O-(2-hydroxyethyl)-rapamycin]	1.03	0.97	0.95	0.92
COc1cc2nccc(Oc3ccc(NC(=O)NC4CC4)c(Cl)c3)c2cc1C(N)=O [Compound A, 4-[3-chloro-4-(cyclopropylaminocarbonyl)aminophenoxy]-7-methoxy-6-quinolinecarboxamide]	1.15	1.15	1.07	1.02
